Drawing on US7772252B2, “Heterocyclic substituted carbonyl derivatives and their use as dopamine D3 receptor ligands” (Aventis Pharmaceuticals Inc., priority 2001, dated 2010), this text covers Ki for 22 molecules.

For this assay, the target named is T1, cloned human dopamine D3 receptors (Homo sapiens, UniProt P35462).
T1 construct: expressed in transfected cells; membrane homogenate
T1 sequence (P35462 whole entry): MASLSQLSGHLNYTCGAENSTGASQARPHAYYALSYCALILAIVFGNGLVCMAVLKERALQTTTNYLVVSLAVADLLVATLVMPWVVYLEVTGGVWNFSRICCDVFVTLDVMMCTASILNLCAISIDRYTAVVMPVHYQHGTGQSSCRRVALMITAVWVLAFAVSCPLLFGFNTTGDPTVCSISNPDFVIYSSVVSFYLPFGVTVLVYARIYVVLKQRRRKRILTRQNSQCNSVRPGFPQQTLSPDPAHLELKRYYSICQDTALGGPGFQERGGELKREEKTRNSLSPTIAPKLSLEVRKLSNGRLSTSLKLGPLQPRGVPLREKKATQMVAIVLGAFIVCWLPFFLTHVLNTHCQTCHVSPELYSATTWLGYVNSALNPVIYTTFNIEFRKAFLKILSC
The assay is described as follows: [N-Methyl-3H]Spiroperidol binding to cloned human dopamine D3 receptors. To be noted: read-out: D3 Ki. The procedure, abridged:
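Stably transfected CHO cells expressing cloned human D3 receptor were used as membranes homogenized in 10% DMSO. Ligand was [N-methyl-3H]spiroperidol displacement.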
Regarding `O=C([C@@H]1C[C@H]1CN1CCN(c2csc3cc(C(F)(F)F)ccc23)CC1)N1CCC(n2ccnc2)CC1` [compound 833513], the inhibition constant (Ki) turned out to be 43.1 nM.
In the case of `O=C([C@@H]1C[C@H]1CN1CCN(c2csc3cc(C(F)(F)F)ccc23)CC1)N1CCC(CCN2CCCC2)CC1` [compound 833514] it was 0.36 nM; in that of `O=C(NCc1ccc(-c2csnn2)cc1)[C@@H]1C[C@H]1CN1CCN(c2csc3cc(C(F)(F)F)ccc23)CC1` [compound 833515], 48.3 nM.
`O=C(NC1CCN(Cc2ccc(F)cc2F)CC1)[C@@H]1C[C@H]1CN1CCN(c2csc3cc(C(F)(F)F)ccc23)CC1` [compound 833516]: the Ki is 21.7 nM.
Consider `COc1ccc2c(c1)c(N1CCN(C[C@@H]3C[C@H]3C(=O)NC3CCN(Cc4ccc(F)c(F)c4)CC3)CC1)nn2C` [compound 833626], for which the Ki was 2.17 nM.
In the case of `COc1ccc2c(c1)c(N1CCN(C[C@@H]3C[C@H]3C(=O)NC3CCN(Cc4ccc(F)cc4F)CC3)CC1)nn2C` [compound 833627] it was 1.63 nM; in that of `COc1ccc2c(c1)c(N1CCN(C[C@@H]3C[C@H]3C(=O)NCCc3ccc(F)cc3)CC1)nn2C` [compound 833629], 2.69 nM.
As for `COc1ccc2c(c1)c(N1CCN(C[C@@H]3C[C@H]3C(=O)NC[C@@H]3CCNC3)CC1)nn2C` [compound 833632], the figure is 4.06 nM.
For the molecule `O=C(NCCCN1CCCCC1)[C@@H]1C[C@H]1CN1CCC(c2csc3c(C(F)(F)F)cccc23)CC1` [compound 833686], the Ki is 7.22 nM.
`Cn1nc(C2CCN(C[C@@H]3C[C@H]3C(=O)N[C@H]3CC[C@H](C)CC3)CC2)c2ccc(Br)cc21` [compound 833693]: the Ki was 18.4 nM.
As for `C[C@H]1CC[C@H](NC(=O)[C@@H]2C[C@H]2CN2CCC(c3n[nH]c4cc(Br)ccc34)CC2)CC1` [compound 833694], the Ki was 46.9 nM.
As to `C[C@H]1CC[C@H](NC(=O)[C@@H]2C[C@H]2CN2CCC(c3nn(-c4cccnc4)c4ccccc34)CC2)CC1` [compound 833695], the Ki turned out to be 176 nM.
With `Cn1nc(C2CCN(C[C@@H]3C[C@H]3C(=O)N[C@H]3CC[C@H](C)CC3)CC2)c2ccc(C(F)(F)F)cc21` [compound 833696], the Ki amounted to 268 nM.
With `C[C@H]1CC[C@H](NC(=O)[C@@H]2C[C@H]2CN2CCC(c3nn(C4CCCCC4)c4cc(C(F)(F)F)ccc34)CC2)CC1` [compound 833697], the Ki is 105 nM.
Consider `C[C@H]1CC[C@H](NC(=O)[C@@H]2C[C@H]2CN2CCC(c3nn(-c4ccc(F)cc4)c4cc(C(F)(F)F)ccc34)CC2)CC1` [compound 833698], for which the Ki was determined as 134 nM.
On to `C[C@H]1CC[C@H](NC(=O)[C@@H]2C[C@H]2CN2CCN(c3nc4cccc5c4n3CCC5)CC2)CC1` [compound 833699, 2R-[4-(5,6-Dihydro-4H-imidazo[4,5,1-ij]quinolin-2-yl)-piperazin-1-ylmethyl]-1R-cyclopranecarboxylic acid (trans-4-methyl-cyclohexyl)-amide], for which the inhibition constant Ki amounted to 7.2 nM.
Consider `C[C@H]1CC[C@H](NC(=O)[C@@H]2C[C@H]2CN2CCN(c3csc4ncccc34)CC2)CC1` [compound 833700], for which the inhibitory constant (Ki) amounted to 3.24 nM.
Take `C[C@H]1CC[C@H](NC(=O)[C@@H]2C[C@H]2CN2CCN(c3nn(-c4ccc(F)cc4)c4ccccc34)CC2)CC1` [compound 833701]: the Ki was found to be 1.28 nM.
Consider `Cn1nc(N2CCN(C[C@@H]3C[C@H]3C(=O)N[C@H]3CC[C@H](C)CC3)CC2)c2ccccc21` [compound 833702], for which the inhibition constant Ki worked out at 0.495 nM.
As for `C[C@H]1CC[C@H](NC(=O)[C@@H]2C[C@H]2CN2CCC(c3nsc4cc(Br)ccc34)CC2)CC1` [compound 833703], the figure is 1.92 nM; as for `COc1ccc2[nH]nc(N3CCN(C[C@@H]4C[C@H]4C(=O)N[C@H]4CC[C@H](C)CC4)CC3)c2c1` [compound 833704], 2.3 nM.
In the case of `O=C(NC1CCN(C(=O)Nc2ccc(Cl)cc2)CC1)[C@@H]1C[C@H]1CN1CCC(c2noc3ccsc23)CC1` [compound 833714] it was 4.16 nM.
